Experiments:
Assay type in all cases: in vivo
[1] = Flavor profile determined by a trained panel of at least 5 testers
Procedure: The flavor profiles were determined by a trained panel of at least 5 testers by tasting against a 0.5% strength salt and a 0.5% strength sugar solution

[2] = Saltiness of a stock tasted against a reference series of the same stock with different salt contents; details: reference series 0.2%, 0.4%, 0.5% salt
Excerpt: In another test, the saltiness of a stock having a salt content of 0.3% and 5 ppm of an equimolar mixture of 1-(3-hydroxy-propyl)-3-((1S,2S,5R)-2-isopropyl-5-methyl-cyclohexyl)-urea (3) and 1-(3-hydroxy-propyl)-3-((1R,2R,5S)-2-isopropyl-5-methyl-cyclohexyl)-urea (4) added was tasted. The testers evaluated this stock against a reference series of this same stock with salt contents of 0.2%, 0.3%, 0.4% and 0.5%. The saltiness of the stock with a salt content of 0.3% and 5 ppm of an equimolar mixture of 1-(3-hydroxy-propyl)-3-((1S,2S,5R)-2-isopropyl-5-methyl-cyclohexyl)-urea (3) and 1-(3-hydroxy-propyl)-3-((1R,2R,5S)-2-isopropyl-5-methyl-cyclohexyl)-urea (4) added was evaluated with a saltiness of 0.36% on average.
In another test, the saltiness of a stock having a salt content of 0.3% and 3 ppm of an equimolar mixture of (3-methoxy-propyl)-carbamic acid (1S,2S,5R)-2-isopropyl-5-methyl-cyclohexyl ester (9) and (3-methoxy-propyl)-carbamic acid (1R,2R,5S)-2-isopropyl-5-methyl-cyclohexyl ester (10) was tasted. The testers evaluated this stock against a reference series of this same stock with salt contents of 0.2%, 0.3%, 0.4% and 0.5%. […]

[3] = Flavor comparison in American beef extract base (FIG. 1), panel of trained testers; details: 1 ppm of 1:1 mixture in American beef extract base vs base with 0.05 wt. % MSG
Excerpt: This is also shown by the spider diagram appended as FIG. 1, in which an American beef extract as a base is compared with (i) such a base having 1 ppm of a 1:1 mixture of 1-((1S,2S,5R)-2-isopropyl-5-methyl-cyclohexyl)-3-(3-methoxy-propyl)-urea (1) and 1-((1R,2R,5S)-2-isopropyl-5-methyl-cyclohexyl)-3-(3-methoxy-propyl)-urea (2) added and (ii) with such a base having 0.05 wt. % of MSG (sodium glutamate) added. The observations above apply accordingly for all mixtures to be used according to the invention.
The flavor of a 0.5% American beef extract as the base (solid dark line) was compared with the aid of tasting by a panel of trained testers with the flavor firstly of such a base to which 1 ppm of a mixture of 1-((1S,2S,5R)-2-isopropyl-5-methyl-cyclohexyl)-3-(3-methoxy-propyl)-urea (1) and 1-((1R,2R,5S)-2-Isopropyl-5-methyl-cyclohexyl)-3-(3-methoxy-propyl)-urea (2) was added (solid light line), and secondly such a base to which 0.05 wt. % MSG was added (dotted line).
The testers evaluated the strength of the test directions indicated, in each case by specifying marks on a scale of from 0 (no corresponding flavor) to 8 (very strong corresponding flavor). The average values of the respective marks are represented.

[4] = table of further examples, prepared from racemic neo-menthol or neo-menthylamine and tasted
[5] = trained panel of at least 5 testers, tasting against a 0.5% strength salt and a 0.5% strength sugar solution

For `CCOCCCNC(=O)O[C@H]1C[C@H](C)CC[C@H]1C(C)C` (racemic), the “Flavor Profile” value [1, 4] was “rancid, musty, bitter, umami”.

With `CC(C)[C@@H]1CC[C@@H](C)C[C@@H]1OC(=O)NCC1COC(C)(C)O1` (mixture of isomers) the “Flavor Profile” value [1, 4] was “sweet, bitter, caramel, salty”.

For `CC(C)[C@@H]1CC[C@@H](C)C[C@@H]1NC(=O)NCCO` (racemic), the “Flavor Profile” value [1, 4] was “alga, roasted note, umami, sweet”.

In the case of “4-((1S,2S,5R)-2-Isopropyl-5-methyl-cyclohexyloxycarbonylamino)-butyric acid ethyl ester (11)/4-((1R,2R,5S)-2-isopropyl-5-methyl-cyclohexyloxycarbonylamino)-butyric acid ethyl ester (12) [Synthesis Example 6]”, the “Flavor Profile” value [1, 5] was “bitter, salty, umami”.

For `COCC(C)NC(=S)N[C@H]1C[C@H](C)CC[C@H]1C(C)C` (mixture of isomers), the “Flavor Profile” value [1, 4] was “bitter, slightly umami”.

For `CC(C)[C@@H]1CC[C@@H](C)C[C@@H]1NC(=O)NCCOCCO` (racemic), the “Flavor Profile” value [1, 4] was “fatty, oily (fish), umami”.

In the case of “(3-Methoxy-propyl)-carbamic acid (1S,2S,5R)-2-isopropyl-5-methyl-cyclohexyl ester (9) and (3-methoxy-propyl)-carbamic acid (1R,2R,5S)-2-isopropyl-5-methyl-cyclohexyl ester (10) [Synthesis Example 5]”, the “saltiness evaluated on average” value ([2]; stock with salt content 0.3% and 3 ppm added) was 0.35% and the “Flavor Profile” value [1, 5] was “sweet, salty, umami, slightly bitter”.

In the case of `CC(C)[C@@H]1CC[C@@H](C)C[C@@H]1NC(=S)NC1CCCC1` (racemic), the “Flavor Profile” value [1, 4] was “bitter, long-lasting, umami, metallic”.

In the case of `CC(C)[C@@H]1CC[C@@H](C)C[C@@H]1OC(=O)NCCCO` (racemic), the “Flavor Profile” value [1, 4] was “soapy, vegetable, asparagus, potato, mouthfeel, slightly umami”.

With `CC(C)[C@@H]1CC[C@@H](C)C[C@@H]1OC(=O)NCCOCCO` (racemic) the “Flavor Profile” value [1, 4] was “fatty, tallow, oily, salty, metallic”.

With `CC(C)[C@@H]1CC[C@@H](C)C[C@@H]1OC(=O)NCC1CCCO1` (mixture of isomers) the “Flavor Profile” value [1, 4] was “bitter, long-lasting, umami”.

In the case of `COCCNC(=O)N[C@H]1C[C@H](C)CC[C@H]1C(C)C` (racemic), the “Flavor Profile” value [1, 4] was “fishy, salty, umami”.

With `COCCNC(=O)O[C@H]1C[C@H](C)CC[C@H]1C(C)C` (racemic) the “Flavor Profile” value [1, 4] was “sweet, umami”.

For `CCNC(=S)N[C@H]1C[C@H](C)CC[C@H]1C(C)C` (racemic), the “Flavor Profile” value [1, 4] was “bitter, dry-dusty, umami”.

For `CC(C)[C@@H]1CC[C@@H](C)C[C@@H]1NC(=O)NCC1COC(C)(C)O1` (mixture of isomers), the “Flavor Profile” value [1, 4] was “sweet, umami”.

For `CC(C)[C@@H]1CC[C@@H](C)C[C@@H]1NC(=O)NC1CCCC1` (racemic), the “Flavor Profile” value [1, 4] was “bitter, astringent, long-lasting, salty, metallic”.

For `CC(C)[C@@H]1CC[C@@H](C)C[C@@H]1OC(=O)NCCCCO` (racemic), the “Flavor Profile” value [1, 4] was “slightly bitter, salty, umami”.

With `CC(C)[C@@H]1CC[C@@H](C)C[C@@H]1OC(=O)Nc1ccccc1` (racemic) the “Flavor Profile” value [1, 4] was “bitter, dry, dusty, umami, dull”.

With `CC(C)[C@@H]1CC[C@@H](C)C[C@@H]1OC(=O)NC1CCCC1` (racemic) the “Flavor Profile” value [1, 4] was “bitter, salty”.

For “1-(3-Hydroxy-propyl)-3-((1S,2S,5R)-2-isopropyl-5-methyl-cyclohexyl)-urea (3)/1-(3-Hydroxy-propyl)-3-((1R,2R,5S)-2-isopropyl-5-methyl-cyclohexyl)-urea (4) [Synthesis Example 2]”, the “saltiness evaluated on average” value ([2]; stock with salt content 0.3% and 5 ppm added) was 0.36% and the “Flavor Profile” value [1, 5] was “fishy, salty, weakly umami”.

For “3-[3-((1S,2S,5R)-2-Isopropyl-5-methyl-cyclohexyl)-ureido]-butyric acid ethyl ester (7)/3-[3-((1R,2R,5S)-2-isopropyl-5-methyl-cyclohexyl)-ureido]-butyric acid ethyl ester (8) [Synthesis Example 4]”, the “Flavor Profile” value [1, 5] was “bitter, salty, metallic, umami”.

In the case of `CC(C)[C@@H]1CC[C@@H](C)C[C@@H]1OC(=O)NCc1ccc2c(c1)OCO2` (racemic), the “Flavor Profile” value [1, 4] was “bitter, umami”.

In the case of “1-((1S,2S,5R)-2-Isopropyl-5-methyl-cyclohexyl)-3-(2-methoxy-1-methyl-ethyl)-urea (5)/1-((1R,2R,5S)-2-isopropyl-5-methyl-cyclohexyl)-3-(2-methoxy-1-methyl-ethyl)-urea (6) [Synthesis Example 3]”, the “Flavor Profile” value [1, 5] was “long-lasting, salty, umami”.

With `COCC(C)NC(=O)O[C@H]1C[C@H](C)CC[C@H]1C(C)C` (mixture of isomers) the “Flavor Profile” value [1, 4] was “bitter, metallic, umami”.

In the case of `CC(C)[C@@H]1CC[C@@H](C)C[C@@H]1NC(=S)NC1CC1` (racemic), the “Flavor Profile” value [1, 4] was “bitter, mouthfeel, umami”.

With `CCOCCCNC(=O)N[C@H]1C[C@H](C)CC[C@H]1C(C)C` (racemic) the “Flavor Profile” value [1, 4] was “fatty, tallow, dry- dusty, long-lasting, umami”.

In the case of `CC(C)[C@@H]1CC[C@@H](C)C[C@@H]1NC(=O)NCC1CCCO1` (mixture of isomers), the “Flavor Profile” value [1, 4] was “salty, weakly umami”.

In the case of `CCOC(=O)CC(C)NC(=O)O[C@H]1C[C@H](C)CC[C@H]1C(C)C` (mixture of isomers), the “Flavor Profile” value [1, 4] was “bitter, dry-dusty, tingling, slightly umami”.

In the case of `CCNC(=O)O[C@H]1C[C@H](C)CC[C@H]1C(C)C` (racemic), the “Flavor Profile” value [1, 4] was “cooling, umami, menthol note”.

For “1-((1S,2S,5R)-2-Isopropyl-5-methyl-cyclohexyl)-3-(3-methoxy-propyl)-urea (1)/1-((1R,2R,5S)-2-isopropyl-5-methyl-cyclohexyl)-3-(3-methoxy-propyl)-urea (2) [Synthesis Example 1]”, the “Flavor Profile” value [1, 5] was “sweet, salty, metallic, umami” and the “flavor compared with sodium glutamate (MSG)” value [3] was “clear umami flavor very closely approximating sodium glutamate (MSG), which also significantly enhances the saltiness of the base but without tasting unpleasantly sweet”.

In the case of `CCOC(=O)CCCNC(=O)O[C@@H]1C[C@@H](C)CC[C@@H]1C(C)C` [(12), 4-((1R,2R,5S)-2-isopropyl-5-methyl-cyclohexyloxycarbonylamino)-butyric acid ethyl ester], the “Flavor Profile” value [1, 5] was “salty, umami, delayed and weaker in comparison with the racemate”.

In the case of `CCOC(=O)CCCNC(=O)O[C@H]1C[C@H](C)CC[C@H]1C(C)C` [(11), 4-((1S,2S,5R)-2-isopropyl-5-methyl-cyclohexyloxycarbonylamino)-butyric acid ethyl ester], the “Flavor Profile” value [1, 5] was “salty, umami, relatively weak in comparison with the racemate”.

With `CC(C)[C@@H]1CC[C@@H](C)C[C@@H]1NC(=O)NC1CC1` (racemic) the “Flavor Profile” value [1, 4] was “bitter, long-lasting, salty, umami”.

For `CC(C)[C@@H]1CC[C@@H](C)C[C@@H]1NC(=O)NCc1ccc2c(c1)OCO2` (racemic), the “Flavor Profile” value [1, 4] was “salty, weakly umami”.

For `CC(C)[C@@H]1CC[C@@H](C)C[C@@H]1NC(=O)NCc1ccccc1` (racemic), the “Flavor Profile” value [1, 4] was “long-lasting, umami”.

For `COCCCNC(=S)N[C@H]1C[C@H](C)CC[C@H]1C(C)C` (racemic), the “Flavor Profile” value [1, 4] was “very bitter, umami”.

In the case of `COCCCNC(=O)O[C@@H]1C[C@@H](C)CC[C@@H]1C(C)C` [(10), (3-methoxy-propyl)-carbamic acid (1R,2R,5S)-2-isopropyl-5-methyl-cyclohexyl ester], the “Flavor Profile” value [1, 5] was “umami, salty, metallic, not bitter”.

With `CC(C)[C@@H]1CC[C@@H](C)C[C@@H]1OC(=O)NC1CCCCC1` (racemic) the “Flavor Profile” value [1, 4] was “weakly sweet and weakly umami”.

For `CC(C)[C@@H]1CC[C@@H](C)C[C@@H]1OC(=O)NC1CC1` (racemic), the “Flavor Profile” value [1, 4] was “bitter, salty, umami”.

With `COCCCNC(=O)O[C@H]1C[C@H](C)CC[C@H]1C(C)C` [(9), (3-methoxy-propyl)-carbamic acid (1S,2S,5R)-2-isopropyl-5-methyl-cyclohexyl ester] the “Flavor Profile” value [1, 5] was “umami, salty, metallic, bitter”.
